Here are results for two compounds from patent publication US20050202511A1, “AMP-activated protein kinase (AMPK) inhibitor screening assay” (priority 2002, published 2005).

As a reminder, the Kd is the constant that tells how readily two partners part at equilibrium.

Assay [1] has as its target T1, AMPK-γ2 CBS3-4 construct (Homo sapiens, UniProt Q9UGJ0).
T1 construct: the C-terminal pair (CBS3-4, residues 430-556); made in house; host or cells: E. coli BL21 (DE3), vector pGEX-KG
Briefly: Displacement of AMP by AMP-S (competitive binding assay). On the procedure: (§1) Various concentrations of [^14C]-AMP, [γ^32P] […] Reactions were stopped by spotting 10 ìl onto a Millipore MF Filter Membrane disc and rapidly washing under high vacuum with 1 ml of ice-cold TBS. Radioactivity was determined on the filters by scintillation counting. Non-specific binding (which was trivial) was determined by performing the assay with GST as a control, and was subtracted. […] Data were fitted to the binding models given in the text, using GraphPad Prism 3. Estimates of parameters resulting from fits are quoted in the text and Table 1±standard error, and the curves shown in figures are theoretical curves obtained using those estimates.

For assay [2], the system named is AMPK. Put plainly: Activation of AMPK (data not shown). In kind it is biochemical. To be noted: read-out: concentration giving half-maximal activation.
Assay [3] deals with cystathionine â-synthase D444N mutant (Homo sapiens, UniProt P35520, D444N). The settings on record: concentrations of SAM up to 300 μM; cited from earlier work.
In assay [4] the target is wild type cystathionine â-synthase (Homo sapiens, UniProt P35520). To be noted: read-out: half-maximal effect (activation); cited from earlier work.
Assay [5] addresses T2, cystathionine â-synthase CBS domain pair D444N (Homo sapiens, UniProt P35520, D444N).
T2 construct: 416-551 of cystathionine â-synthase; made in house; host or cells: E. coli BL21 (DE3)
Briefly: Filter binding assay, GST-CBS domain fusion.
Text: (§2) Finally, DNA encoding the C-terminal CBS domain pair from the enzyme cystathionine â-synthase was cloned and expressed.
(§3) For IMPDH2, DNAs encoding residues 112-232 or the full-length protein (1-514) were amplified using human liver cDNA (Clontech) as template, and cloned into pHAT20 (Clontech) using 5′-AgeI and 3′-KpnI sites added to the primers. For the other constructs, DNAs encoding residues 582-840 of CLC2, or 416-551 of cystathionine â-synthase, were amplified using human liver cDNA as template, and cloned into pGEX-KG as above using 5′-BamHI and 3′-XhoI sites added to the primers. All mutations were created using the Stratagene QuikChange Site-directed Mutagenesis system.
as §1

Assay [6] has as its target T3, cystathionine â-synthase CBS1-2 (WT) (Homo sapiens, UniProt P35520).
T3 construct: 416-551 of cystathionine â-synthase; made in house; host or cells: E. coli BL21 (DE3)
Briefly: Filter binding assay, GST-CBS domain fusion. The settings on record: single-site model.
Text: as §2, §3, §1

T1 sequence (Q9UGJ0 430-556): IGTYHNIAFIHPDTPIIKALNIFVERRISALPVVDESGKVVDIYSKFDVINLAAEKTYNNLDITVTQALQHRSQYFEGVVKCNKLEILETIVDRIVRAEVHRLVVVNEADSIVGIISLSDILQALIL

As to `Nc1ncnc2c1ncn2[C@@H]1O[C@H](COP(O)(O)=S)[C@@H](O)[C@H]1O` [AMP-S, adenosine 5′-O-monothiophosphate], the “Kd fold lower than the Kd of CBS3-4 for AMP” value in assay [1] is reported as 2 fold. The dissociation constant Kd in assay [1] (read-out: Kd from single site competitive binding model) amounted to 48 ± 12 µM. Further, in assay [2], the EC50 is 3.1 µM.

On to `C[S+](CC[C@H](N)C(=O)O)C[C@H]1O[C@@H](n2cnc3c(N)ncnc32)[C@H](O)[C@@H]1O` (some centres unmarked) [S-adenosyl methionine], for which the activation result in assay [3] is on record as “not significantly activated”. The EC50 in assay [4] is approximately 20 µM. For the same compound, the “increase in Kd relative to wild type” value in assay [5] worked out at 15 fold. The Kd in assay [5] (single-site model) was 510 ± 70 µM; in assay [6], 34 µM.
